The text below walks through data of patent publication US20260200921A1, “SUBSTITUTED AMINOPYRIDINE COMPOUNDS AS AKT INHIBITORS” (Atavistik Bio, Inc., priority 2023, published 2026).

One experiment deals with T1, wildtype AKT1 (Homo sapiens, UniProt P31749).
T1 construct: Purified human recombinant kinase full-length wildtype AKT1 was expressed in insect cells; made in house; host or cells: insect cells
In words: AKT1 kinase assay, wildtype (TR-FRET, Lance). To be noted: full-length human recombinant wildtype AKT1 activated by PDPK1; Ulight-CREBtide substrate; either 50 μM ATP or 2 mM ATP. In kind it is biochemical. The method, then:
AKT1 kinase assay: Inhibitory effects of compounds on wildtype AKT1 were undertaken in a 10-pt dose response kinase activity assay measuring phospho-peptide product formation based on TR-FRET signal as described in the following paragraph.
(§1) Purified human recombinant kinase full-length wildtype AKT1 was expressed in insect cells and activated in vitro by PDPK1. Ulight™-CREBtide (PerkinElmer, catalog number TRF0107) was used as the peptide substrate. The reaction buffer consisted of 50 mM HEPES pH 7.5, 10 mM MgCl2, 0.01% Triton X-100, 0.01% BSA, 2 mM DTT, 0.6 nM AKT1, 50 nM Ulight™-CREBtide and either 50 μM ATP or 2 mM ATP. The compound solution was prepared as 10 mM DMSO stock. For the assay, a 1:3 serial dilution 10-pt dose response of test compounds, in duplicate, for each concentration were dispensed into a 384-well plate (Corning, catalog number 4513). Final DMSO concentration in the assay was 1%. The enzyme mixture (5 μL, 1.2 nM) were added and the mixture was incubated for 15 min at RT prior to the start of the kinase reaction by the addition of 5 μL substrate mixture (100 nM Ulight™-CREBtide). The reaction was stopped after 60 min of incubation at RT by the addition of 10 μL of Detection Mix (PerkinElmer. #CR97-100) consisting of Europium-anti-phospho-CREB (Ser133) (Perkin Elmer, catalog numberTRF0200). Incubation with the detection mix for a further 60 min allowed binding of antibody to the phospho-Ulight™ CREBtide. The fluorescence emissions at 620 nm and 665 nm after excitation at 350 nm was measured using Envision reader. The ratio of the emissions at 665 nm and at 620 nm provided the measure for the amount of phosphorylated CREBtide product of AKT1 kinase activity. To determine the IC50 values, the data was normalized (enzyme reaction without inhibitor=0% inhibition, all other assay components but no enzyme=100% inhibition) and IC50 values were calculated by a 4-parameter fit using an in-house developed protocol.
For orientation: In TR-FRET formats the signal depends on donor and acceptor labels being close together.

A further experiment has as its target T2, AKT1 E17K (Homo sapiens, UniProt P31749, E17K).
T2 construct: Purified human recombinant kinase full-length AKT1 E17K was expressed in insect cells; made in house; host or cells: insect cells
In words: AKT1 E17K kinase assay (TR-FRET, Lance). Type of experiment: biochemical. To be noted: full-length human recombinant AKT1 E17K activated by PDPK1; Ulight-CREBtide substrate; either 50 μM ATP or 2 mM ATP. The method, then: AKT1 E17K kinase assay: Inhibitory effects of compounds on AKT1 E17K were undertaken in a 10-pt dose response kinase activity assay measuring phospho-peptide product formation based on TR-FRET signal as described in the following paragraph.
as §1, with “full-length” for “full-length wildtype”, “AKT1 E17K” for “AKT1”, “AKT1 E17K,” for “AKT1,”, “(PerkinElmer,” for “(PerkinElmer.”

T2 sequence (P31749 whole entry E17K): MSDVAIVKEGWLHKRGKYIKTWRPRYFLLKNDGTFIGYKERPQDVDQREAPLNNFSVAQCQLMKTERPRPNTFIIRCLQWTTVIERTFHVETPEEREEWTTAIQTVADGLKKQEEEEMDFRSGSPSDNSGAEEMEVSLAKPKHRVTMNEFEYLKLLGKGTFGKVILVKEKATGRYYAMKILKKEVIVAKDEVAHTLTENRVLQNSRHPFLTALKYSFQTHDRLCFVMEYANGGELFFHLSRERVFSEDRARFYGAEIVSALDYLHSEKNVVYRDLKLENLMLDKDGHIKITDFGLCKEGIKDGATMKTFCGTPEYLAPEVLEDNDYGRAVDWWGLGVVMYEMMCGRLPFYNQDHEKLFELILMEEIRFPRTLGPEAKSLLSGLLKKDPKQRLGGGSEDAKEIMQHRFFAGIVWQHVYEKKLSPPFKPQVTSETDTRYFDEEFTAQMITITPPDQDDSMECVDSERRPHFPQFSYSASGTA
T1 sequence (P31749 whole entry): as the sequence (P31749 whole entry E17K) above, with K17E counted along it

Regarding `Cc1cc(O)n(-c2ccc(C(=O)NCc3ccc(-n4c(-c5cccnc5N)nc5ccc(-c6ccccc6)nc54)cc3)cn2)n1` [Compound I-18, N-(4-(2-(2-aminopyridin-3-yl)-5-phenyl-3H-imidazo[4,5-b]pyridin-3-yl)benzyl)-6-(5-hydroxy-3-methyl-1H-pyrazol-1-yl)nicotinamide], the IC50 on wildtype AKT1 was less than 500 nM; on AKT1 E17K it was less than 50 nM.

Regarding `Cc1cc(O)n(-c2ccc(C(=O)NCc3ccc(-n4c(-c5cccnc5N)nc5ccc(-c6ccccc6)nc54)cc3)nc2)n1` [Compound I-19, N-(4-(2-(2-aminopyridin-3-yl)-5-phenyl-3H-imidazo[4,5-b]pyridin-3-yl)benzyl)-5-(5-hydroxy-3-methyl-1H-pyrazol-1-yl)picolinamide], the IC50 on wildtype AKT1 is less than 500 nM; at AKT1 E17K, 200 to 500 nM.

As for `Nc1ncccc1-c1nc2ccc(-c3ccccc3)nc2n1-c1ccc(CNC(=O)c2ccc(-c3nn[nH]n3)cc2)cc1` [Compound I-20, N-(4-(2-(2-aminopyridin-3-yl)-5-phenyl-3H-imidazo[4,5-b]pyridin-3-yl)benzyl)-4-(2H-tetrazol-5-yl)benzamide], the IC50 on wildtype AKT1 is less than 500 nM; at AKT1 E17K it was less than 50 nM.

On to `Nc1ncccc1-c1nc2ccc(-c3ccccc3)nc2n1-c1ccc(CNC(=O)c2cccc(-c3nn[nH]n3)c2)cc1` [Compound I-21, N-(4-(2-(2-aminopyridin-3-yl)-5-phenyl-3H-imidazo[4,5-b]pyridin-3-yl)benzyl)-3-(2H-tetrazol-5-yl)benzamide], for which the results for the IC50 on wildtype AKT1 and at AKT1 E17K were less than 500 nM and 50 to 200 nM, respectively.

In the case of `Cc1cc(O)n(-c2ccc(C(=O)NCc3ccc(-n4c(-c5cccnc5N)nc5ccc(-c6ccccc6)nc54)nc3)cc2)n1` [Compound I-22, N-[[6-[2-(2-amino-3-pyridyl)-5-phenyl-imidazo[4,5-b]pyridin-3-yl]-3-pyridyl]methyl]-4-(5-hydroxy-3-methyl-pyrazol-1-yl)benzamide], the IC50 on wildtype AKT1 was greater than 500 nM; at AKT1 E17K it was no less than 500 nM.

`Cc1cc(O)n(-c2ccc(C(=O)NCc3ccc(-n4c(-c5cccnc5N)nc5cc(-c6ccccc6)cnc54)cc3)cc2)n1` [Compound I-23, N-(4-(2-(2-aminopyridin-3-yl)-6-phenyl-3H-imidazo[4,5-b]pyridin-3-yl)benzyl)-4-(5-hydroxy-3-methyl-1H-pyrazol-1-yl)benzamide]: the IC50 on wildtype AKT1 was greater than 500 nM; on AKT1 E17K, no less than 500 nM.

For the compound `Cc1cc(O)n(-c2ccc(C(=O)NCc3ccc(-n4c(-c5cccnc5N)nc5cc(-c6cccnc6)cnc54)cc3)cc2)n1` [Compound I-24, N-[[4-[2-(2-amino-3-pyridyl)-6-(3-pyridyl)imidazo[4,5-b]pyridin-3-yl]phenyl]methyl]-4-(5-hydroxy-3-methyl-pyrazol-1-yl)benzamide], the values for the IC50 on wildtype AKT1 and at AKT1 E17K were less than 500 nM and no less than 500 nM, respectively.

With `Cc1cc(O)n(-c2ccc(C(=O)N3CC(c4ccc(-n5c(-c6cccnc6N)nc6ccc(-c7ccccc7)nc65)cc4)C3)cc2)n1` [Compound I-25, (3-(4-(2-(2-aminopyridin-3-yl)-5-phenyl-3H-imidazo[4,5-b]pyridin-3-yl)phenyl)azetidin-1-yl)(4-(5-hydroxy-3-methyl-1H-pyrazol-1-yl)phenyl) methanone], the IC50 on wildtype AKT1 is less than 500 nM; at AKT1 E17K, less than 50 nM.

As to `Nc1ncccc1-c1nc2ccc(-c3ccccc3)nc2n1-c1ccc(C2CN(C(=O)c3ccc(-c4nn[nH]n4)cc3)C2)cc1` [Compound I-26, (4-(2H-tetrazol-5-yl)phenyl)(3-(4-(2-(2-aminopyridin-3-yl)-5-phenyl-3H-imidazo[4,5-b]pyridin-3-yl)phenyl)azetidin-1-yl)methanone], the IC50 on wildtype AKT1 was less than 500 nM; at AKT1 E17K, less than 50 nM.

`Nc1ncccc1-c1nc2ccc(-c3ccccc3)nc2n1-c1ccc(C2CN(C(=O)c3cccc(-c4nn[nH]n4)c3)C2)cc1` [Compound I-27, (3-(2H-tetrazol-5-yl)phenyl)(3-(4-(2-(2-aminopyridin-3-yl)-5-phenyl-3H-imidazo[4,5-b]pyridin-3-yl)phenyl)azetidin-1-yl)methanone]: the IC50 was less than 500 nM at wildtype AKT1 and 50 to 200 nM on AKT1 E17K.

On to `Cc1cc(O)n(-c2ccc(C(=O)NCc3ccc(-n4c(-c5cccnc5N)nc5ccc(-c6ccccc6)cc54)cc3)cc2)n1` [Compound I-28, N-[[4-[2-(2-amino-3-pyridyl)-6-phenyl-benzimidazol-1-yl]phenyl]methyl]-4-(5-hydroxy-3-methyl-pyrazol-1-yl)benzamide], for which the IC50 at wildtype AKT1 is greater than 500 nM; at AKT1 E17K, no less than 500 nM.

In the case of `Cn1ncc(-c2ccc(C(=O)NCc3ccc(-n4c(-c5cccnc5N)nc5ccc(-c6ccccc6)nc54)cc3)cc2)c1O` [Compound I-29, N-[[4-[2-(2-amino-3-pyridyl)-5-phenyl-imidazo[4,5-b]pyridin-3-yl]phenyl]methyl]-4-(5-hydroxy-1-methyl-pyrazol-4-yl)benzamide], the IC50 was less than 500 nM on wildtype AKT1 and no less than 500 nM at AKT1 E17K.

In the case of `Cc1nc(NC(=O)[C@H]2CC[C@H](c3nsc(=O)[nH]3)CC2)ccc1-n1c(-c2cccnc2N)nc2ccc(-c3ccccc3)nc21` [Compound I-38, (1r,4r)-N-(5-(2-(2-aminopyridin-3-yl)-5-phenyl-3H-imidazo[4,5-b]pyridin-3-yl)-6-methylpyridin-2-yl)-4-(5-oxo-4,5-dihydro-1,2,4-thiadiazol-3-yl)cyclohexane-1-carboxamide], the figures for the IC50 on wildtype AKT1 and on AKT1 E17K were less than 500 nM and no less than 500 nM, respectively.

Consider `Cc1nc(NC(=O)[C@H]2CC[C@H](c3nn[nH]n3)CC2)ccc1-n1c(-c2cccnc2N)nc2ccc(-c3ccccc3)nc21` [Compound I-39, (1r,4r)-N-(5-(2-(2-aminopyridin-3-yl)-5-phenyl-3H-imidazo[4,5-b]pyridin-3-yl)-6-methylpyridin-2-yl)-4-(2H-tetrazol-5-yl)cyclohexane-1-carboxamide], for which the IC50 was less than 500 nM at wildtype AKT1 and 200 to 500 nM at AKT1 E17K.

Turning to `Cc1nc(NC(=O)c2cccc(-c3nsc(=O)[nH]3)c2)ccc1-n1c(-c2cccnc2N)nc2ccc(-c3ccccc3)nc21` [Compound I-40, N-(5-(2-(2-aminopyridin-3-yl)-5-phenyl-3H-imidazo[4,5-b]pyridin-3-yl)-6-methylpyridin-2-yl)-3-(5-oxo-4,5-dihydro-1,2,4-thiadiazol-3-yl)benzamide], the IC50 was less than 500 nM at wildtype AKT1 and less than 50 nM on AKT1 E17K.

In the case of `Nc1ncccc1-c1nc2ccc(-c3ccccc3)nc2n1-c1ccc(NC(=O)c2ccc(-c3nsc(=O)[nH]3)cc2F)nc1` [Compound I-41, N-(5-(2-(2-aminopyridin-3-yl)-5-phenyl-3H-imidazo[4,5-b]pyridin-3-yl)pyridin-2-yl)-2-fluoro-4-(5-oxo-4,5-dihydro-1,2,4-thiadiazol-3-yl)benzamide], the IC50 is less than 500 nM on wildtype AKT1 and 50 to 200 nM on AKT1 E17K.

A word on the IC50: it is the concentration that gives 50% inhibition.
